In patent US20240272165A1, “A METHOD TO IDENTIFY EXCEPTIONAL ANTI-TUMOR BENEFIT FROM BRAF TARGETED THERAPIES” (The Brigham and Women's Hospital, priority 2021, published 2024):

What was measured:
Malme3M = assay: growth rate effect of drugs in sgGAPDHS genome-edited cells versus control; format: cell-based; conditions: spCas9/sgGAPDHS genome-editing
From the text: FIGS. 8A-8C. GAPDHS is required for BRAF inhibitor sensitivity in vitro. Lentiviral spCas9/sgGAPDHS genome-editing in Malme3M 8A) reduces protein levels (WB) but not signaling consequences following vemurafenib or PD-0325901. 8B) reduction in the inherent NAD+/NADH ratio is seen, but not treatment affected changes; however the basal NADP+/NADPH ratio is higher and treatment causes divergent changes. 8C) Growth rates are less affected by vemurafenib, PD-0325901, cobimetinib, and PLX7904 due to sgGAPDHS targeting. Significance using 2-sided, 2-sample t-test; *p<0.05; **p<0.01.
We generated short-guide RNA (sgRNA) for CRISPR/Cas9-mediated genome-editing within the pLentiCRISPRv2 system to assess whether GAPDHS regulates sensitivity to BRAF-targeted drugs through the metabolic state. […] (FIG. 8C). […] We will expand these analyses to also include SKMEL28 and UACC62, and assess dabrafenib and encorafenib. We will also measure basal and changes following BRAF/MEK-inhibitor on the inherent metabolic state, measured as NAD(P)+/NAD(P)H ratios and GAPDH/S activity.

SKMEL2(NRAS-Q61R) = assay: drug-mediated growth inhibition as percentage of baseline doubling rate; format: cell-based; conditions: NRAS-mutant SKMEL2
From the text: FIGS. 5A-5B. Response to BRAF/MEK inhibition in melanoma cells was associated with the inherent metabolic state. 5A) Effects on cell doubling rates caused by vemurafenib and PD0325901 treatment in melanoma and carcinoma cell lines. […] 5B) Pearson metric of PD-0325901 growth rate effects used on gene-level transcription data (HuExon 1.0ST) for Gene Set Enrichment Analysis (GSEA) identified specific pathways associated with sensitivity, particularly oxidative phosphorylation, and resistance to BRAF/MEK inhibition.
Because melanoma cells undergo metabolic shift in response to BRAF- and MEK-targeted therapy, we wanted to characterize the drug sensitivities across a melanoma cell line cohort (FIG. 4A). To ensure that rapidly growing cells versus slow were compared in a normalized manner, we assessed the degree of drug-mediated growth inhibition as percentage of the baseline doubling rate for each cell line (FIG. 5A). This approach was based on classical chemotherapy effect measures [26;27 recently used by others].

| Compound | sensitivity (measured as growth rate effect) of sgGAPDHS cells versus control (Malme3M) | doubling rate under BRAF inhibitor, % of normal doubling rate (SKMEL2(NRAS-Q61R)) [%] |
| --- | --- | --- |
| O=C(NOC[C@H](O)CO)c1ccc(F)c(F)c1Nc1ccc(I)cc1F [PD-0325901] | reduced sensitivity |  |
| CCCS(=O)(=O)Nc1ccc(F)c(C(=O)c2c[nH]c3ncc(-c4ccc(Cl)cc4)cc23)c1F [vemurafenib] |  | 100 |
| CCN(C)S(=O)(=O)Nc1ccc(F)c(C(=O)c2c[nH]c3ncc(-c4cnc(C5CC5)nc4)cc23)c1F [PLX7904] | reduced sensitivity |  |
| Cc1nc(NC(=O)N2CCC[C@H]2C(N)=O)sc1-c1ccnc(C(C)(C)C(F)(F)F)c1 [BYL719] | did not, however, observe reduced sensitivity |  |
| O=C(c1ccc(F)c(F)c1Nc1ccc(I)cc1F)N1CC(O)([C@@H]2CCCCN2)C1 [cobimetinib] | reduced sensitivity |  |
